Experimental data taken from US7119094B1, “Substituted polycyclic aryl and heteroarpyl pyrazinones useful for selective inhibition of the coagulation cascade” (Warner-Lambert Company, priority 2000, dated 2006).
Where two headings read alike, the source gives them in different places.

Assays:
[1] = molecular target: T1, recombinant soluble tissue factor and recombinant human factor VIIa (TF-VIIa) (Homo sapiens, UniProt P08709); test: TF-VIIa Assay; assay type: biochemical
T1 construct: conversion of coagulation factor VII to VIIa by Xa; purchased American Diagnostica, Greenwich Conn; host or cells: factor VIIa purchased; soluble TF made in house in E. coli

Human factor Xa = molecular target: T2, Human factor Xa (Homo sapiens, UniProt P00742); test: Xa Assay; assay type: biochemical; conditions: for IC50: cells without % sign; for % Inhibition Factor Xa (30 µM): at 30 µM
T2 construct: Human factor Xa (0.3 nM); purchased Enzyme Research Laboratories, South Bend Ind

[2] = molecular target: T3, Trypsin (type 1× from porcine pancreas) (Sus scrofa, UniProt P00761); test: Trypsin Assay; assay type: biochemical
T3 construct: Trypsin (5 ug/ml; type 1× from porcine pancreas); purchased Sigma, St. Louis Mo; host or cells: porcine pancreas

Human thrombin [3] = molecular target: T4, Human thrombin (Homo sapiens, UniProt P00734)
Human thrombin [4] = molecular target: T4, Human thrombin; test: biochemical
[5] = cells without % sign, read-out: IC50 TF-VIIa
[6] = cells without % sign, read-out: IC50 Trypsin II

T2 sequence (P00742 235-488 limits assumed): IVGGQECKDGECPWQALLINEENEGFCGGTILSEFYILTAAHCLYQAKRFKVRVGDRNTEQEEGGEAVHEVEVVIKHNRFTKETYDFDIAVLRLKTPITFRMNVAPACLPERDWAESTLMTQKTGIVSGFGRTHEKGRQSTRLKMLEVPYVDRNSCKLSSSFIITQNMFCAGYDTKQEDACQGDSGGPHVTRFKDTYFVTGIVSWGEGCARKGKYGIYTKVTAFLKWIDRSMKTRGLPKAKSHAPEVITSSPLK
T2 sequence (P00742 41-179 limits assumed): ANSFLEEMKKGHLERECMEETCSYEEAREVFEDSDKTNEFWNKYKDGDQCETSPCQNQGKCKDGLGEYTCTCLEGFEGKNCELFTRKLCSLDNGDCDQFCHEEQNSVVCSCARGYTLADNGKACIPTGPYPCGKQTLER
T3 sequence (P00761 9-231): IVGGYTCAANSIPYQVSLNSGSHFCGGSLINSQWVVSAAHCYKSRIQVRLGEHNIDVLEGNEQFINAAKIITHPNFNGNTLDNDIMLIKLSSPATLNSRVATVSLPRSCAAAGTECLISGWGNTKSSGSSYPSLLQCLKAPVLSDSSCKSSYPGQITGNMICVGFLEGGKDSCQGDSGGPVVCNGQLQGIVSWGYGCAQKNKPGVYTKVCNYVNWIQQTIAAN
T1 sequence (P08709 213-466 limits assumed): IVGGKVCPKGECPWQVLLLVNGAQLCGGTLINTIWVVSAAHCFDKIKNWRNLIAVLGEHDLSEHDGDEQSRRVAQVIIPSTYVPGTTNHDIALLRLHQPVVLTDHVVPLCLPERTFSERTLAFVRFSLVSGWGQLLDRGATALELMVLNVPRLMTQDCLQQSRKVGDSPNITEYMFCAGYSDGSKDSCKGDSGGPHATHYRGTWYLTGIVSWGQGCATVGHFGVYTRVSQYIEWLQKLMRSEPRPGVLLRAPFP
T1 sequence (P08709 61-212 limits assumed): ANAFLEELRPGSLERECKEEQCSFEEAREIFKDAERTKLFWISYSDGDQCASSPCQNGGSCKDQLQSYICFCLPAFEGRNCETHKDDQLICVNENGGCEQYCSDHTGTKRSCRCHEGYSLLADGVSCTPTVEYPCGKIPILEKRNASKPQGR
T1 sequence (P13726 33-251 partner limits assumed): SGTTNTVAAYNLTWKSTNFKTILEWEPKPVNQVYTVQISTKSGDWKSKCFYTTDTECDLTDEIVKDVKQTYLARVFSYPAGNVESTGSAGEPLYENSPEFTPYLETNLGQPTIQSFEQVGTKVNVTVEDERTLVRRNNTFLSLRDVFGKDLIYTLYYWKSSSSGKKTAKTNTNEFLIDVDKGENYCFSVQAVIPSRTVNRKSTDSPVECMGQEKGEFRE

CC(C)CC(C)Nc1nc(Cl)c(-c2cccc(N)c2)n(CC(=O)NCc2ccc(C(=N)N)cc2)c1=O (stereo not drawn) [1526-17]
IC50 [1, 5]: 80 nM
IC50 (Human factor Xa): > 30000 nM
IC50 [2, 6]: 170 nM

CC(C)Nc1nc(Cl)c(-c2cc(N)cc(C(=O)NCc3ccc(Br)cc3)c2)n(CC(=O)NCc2ccc(C(=N)N)cc2)c1=O [Example 128-8]
% Inhibition Factor Xa at 100 μM (Human factor Xa): 44% at

O=C(Cn1c(-c2ccc(-c3ccccc3)cc2)c(Cl)nc(NCCc2ccncc2)c1=O)NCCc1ccncc1 [Example E-0054]
% Inhibition Thrombin II (100 νM) (Human thrombin [3]): 0%

CCN(CC)CC(C)Nc1nc(Cl)c(-c2cccc(N)c2)n(CC(=O)NCc2ccc(C(=N)N)cc2)c1=O (stereo not drawn) [1543-25]
IC50 [1, 5]: 280 nM
% Inhibition Factor Xa (30 µM) (Human factor Xa; cells with % sign, and bare 0): 26%
IC50 [2, 6]: 50 nM

CC(C(=O)NCc1ccc(C(=N)N)cc1)n1c(-c2ccccc2)c(Cl)nc(NCCc2cccc(Cl)c2)c1=O (stereo not drawn) [Example 1517-23]
IC50 [1, 5]: 2300 nM
% Inhibition Factor Xa (30 µM) (Human factor Xa; cells with % sign, and bare 0): 0%
IC50 [2, 6]: 1400 nM

CC(C(=O)NCc1ccc(C(=N)N)cc1)n1c(-c2ccccc2)c(Cl)nc(NC2CCC2)c1=O (stereo not drawn) [Example 1517-11]
IC50 [1, 5]: 3000 nM
% Inhibition Factor Xa (30 µM) (Human factor Xa; cells with % sign, and bare 0): 0%
IC50 [2, 6]: 1900 nM

O=C(Cn1c(-c2ccc(-c3ccccc3)cc2)c(Cl)nc(NCc2ccccc2)c1=O)NCCc1cccnc1 [Example E-0110]
% Inhibition TF-VIIa (100 νM) [1]: 0%
% Inhibition Thrombin II (100 νM) (Human thrombin [3]): 0%

O=C(Cn1c(-c2ccc(-c3ccccc3)cc2)c(Cl)nc(NCCc2cccc(Cl)c2)c1=O)NCCc1cccnc1 [Example E-0116]
% Inhibition Trpysin II (100 νM) [2]: 10%
% Inhibition Thrombin II (100 νM) (Human thrombin [3]): 0%

C[C@H](Nc1nc(Cl)c(-c2cccc(N)c2)n(CC(=O)NCc2ccc(C(=N)N)cc2)c1=O)C(=O)O [Example 135]
% Inhibition Factor Xa at 100 μM (Human factor Xa): 6% at

CC(C(=O)NCc1ccc(C(=N)N)cc1)n1c(-c2ccccc2)c(Cl)nc(NCc2ccccc2)c1=O (stereo not drawn) [Example 1517-03]
IC50 [1, 5]: 9000 nM
% Inhibition Factor Xa (30 µM) (Human factor Xa; cells with % sign, and bare 0): 0%
IC50 [2, 6]: 2000 nM

CC(C(=O)NCc1ccc(C(=N)N)cc1)n1c(-c2ccccc2)c(Cl)nc(NCCc2ccccc2)c1=O (stereo not drawn) [Example 1517-17]
IC50 [1, 5]: 1800 nM
% Inhibition Factor Xa (30 µM) (Human factor Xa; cells with % sign, and bare 0): 0%
IC50 [2, 6]: 850 nM

O=C(Cn1c(-c2ccc(-c3ccccc3)cc2)c(Cl)nc(NCCc2ccc(Cl)cc2)c1=O)NCCc1cccnc1 [Example E-0119]
% Inhibition Trpysin II (100 νM) [2]: 10%
% Inhibition Thrombin II (100 νM) (Human thrombin [3]): 0%

O=C(Cn1c(-c2ccc(-c3ccccc3)cc2)c(Cl)nc(NCCc2cccnc2)c1=O)NCCc1ccncc1 [Example E-0053]
% Inhibition TF-VIIa (100 νM) [1]: 0%
% Inhibition Trpysin II (100 νM) [2]: 0%
% Inhibition Thrombin II (100 νM) (Human thrombin [3]): 0%

N=C(N)c1ccc(CNC(=O)Cn2c(-c3cccc(N)c3)c(Cl)nc(NCCCCCC(N)=O)c2=O)cc1 [1543-11]
IC50 [1, 5]: 70 nM
% Inhibition Factor Xa (30 µM) (Human factor Xa; cells with % sign, and bare 0): 24%
IC50 [2, 6]: 40 nM

N=C(N)c1ccc(CNC(=O)Cn2c(-c3cccc(N)c3)c(Cl)nc(NC3CC4CCC3C4)c2=O)cc1 (stereo not drawn) [1526-30]
IC50 [1, 5]: 80 nM
IC50 (Human factor Xa): > 30000 nM
IC50 [2, 6]: 200 nM

CCC(C)(C)Nc1nc(Cl)c(-c2cccc(N)c2)n(CC(=O)NCc2ccc(C(=N)N)cc2)c1=O [1526-06]
IC50 [1, 5]: 170 nM
IC50 (Human factor Xa): > 30000 nM
IC50 [2, 6]: 210 nM

CC(C(=O)NCc1ccc(C(=N)N)cc1)n1c(-c2ccccc2)c(Cl)nc(NCCc2ccccc2)c1=O (stereo not drawn) [Example 1517-15]
IC50 [1, 5]: 3100 nM
% Inhibition Factor Xa (30 µM) (Human factor Xa; cells with % sign, and bare 0): 0%
IC50 [2, 6]: 1500 nM

CC(C)Nc1nc(Cl)c(-c2cc(N)cc(C(=O)NCc3ccc(Cl)cc3Cl)c2)n(CC(=O)NCc2ccc(C(=N)N)cc2)c1=O [Example 128-5]
% Inhibition Factor Xa at 100 μM (Human factor Xa): 43% at

CC(C(=O)NCc1ccc(C(=N)N)cc1)n1c(-c2ccccc2)c(Cl)nc(NC2CCC2)c1=O (stereo not drawn) [Example 1517-09]
IC50 [1, 5]: 2600 nM
% Inhibition Factor Xa (30 µM) (Human factor Xa; cells with % sign, and bare 0): 0%
IC50 [2, 6]: 1500 nM

CC(CC(=O)O)Nc1nc(Cl)c(-c2cccc(N)c2)n(CC(=O)NCc2ccc(C(=N)N)cc2)c1=O (stereo not drawn) [Example 130]
% Inhibition Factor Xa at 100 μM (Human factor Xa): 24% at

N=C(N)c1ccc(CNC(=O)Cn2c(-c3cccc(N)c3)c(Cl)nc(NC(CC(=O)O)c3ccccc3)c2=O)cc1 (racemic) [Example 131]
IC50 ([1]; read-out: IC50 TF-VIIa, cell printed 'at 100 μM', cell adds 'at 100 μM'): 140 nM
% Inhibition Factor Xa at 100 μM (Human factor Xa): 21% at
IC50 ([2]; read-out: IC50 Trypsin II, cell printed 'at 100 μM', cell adds 'at 100 μM'): 48 nM

O=C(Cn1c(-c2ccc(-c3ccccc3)cc2)c(Cl)nc(NCCN2CCOCC2)c1=O)NCCc1ccncc1 [Example E-0055]
% Inhibition TF-VIIa (100 νM) [1]: 0%
% Inhibition Trpysin II (100 νM) [2]: 0%
% Inhibition Thrombin II (100 νM) (Human thrombin [3]): 0%

O=C(Cn1c(-c2ccc(-c3ccccc3)cc2)c(Cl)nc(NCc2ccncc2)c1=O)NCCc1ccncc1 [Example E-0056]
% Inhibition TF-VIIa (100 νM) [1]: 0%
% Inhibition Trpysin II (100 νM) [2]: 0%
% Inhibition Thrombin II (100 νM) (Human thrombin [3]): 0%

Nc1cccc(-c2c(Cl)nc(NC3CCC3)c(=O)n2CC(=O)N2CCC3(CC2)OCCO3)c1 [1543-41]
% Inhibition TF-VIIa (30 µM) ([1]; at 30 µM, cells with % sign): 3%
% Inhibition Factor Xa (30 µM) (Human factor Xa; cells with % sign, and bare 0): 9%
% Inhibition Trypsin II (30 µM) ([2]; at 30 µM, cells with % sign): 6%

COCC(C)Nc1nc(Cl)c(-c2ccccc2)n(CC(=O)NCc2ccc(C(=N)N)cc2)c1=O (stereo not drawn) [1512-07]
IC50 ([1]; read-out: IC50 TF-VIIa): 3600 nM
% Inhibition Factor Xa (30 µM) (Human factor Xa): 4%

CC(C(=O)NCc1ccc(C(=N)N)cc1)n1c(-c2ccccc2)c(Cl)nc(NCc2ccccc2)c1=O (stereo not drawn) [Example 1517-05]
IC50 [1, 5]: 4600 nM
% Inhibition Factor Xa (30 µM) (Human factor Xa; cells with % sign, and bare 0): 0%
IC50 [2, 6]: 1200 nM

N=C(N)c1ccc(C(=O)NCCn2c(-c3cccc(N)c3)c(Cl)nc(NC3CCC3)c2=O)cc1 [Example 136]
IC50 (Human thrombin [4]): > 30000 nM

O=C(Cn1c(-c2cccc(Cl)c2)c(Cl)nc(NCCc2cccc(Cl)c2)c1=O)NCCc1cccnc1 [Example E-0080]
% Inhibition TF-VIIa (100 νM) ([1]; inhibitor at 100 νM): 1%
% Inhibition Trpysin II (100 νM) ([2]; inhibitor at 100 νM): 5%

O=C(Cn1c(Cc2ccccc2)c(Cl)nc(NCCc2cccc(Cl)c2)c1=O)NCCc1ccncc1 [Example E-0059]
% Inhibition TF-VIIa (100 νM) ([1]; inhibitor at 100 νM): 0%
% Inhibition Trpysin II (100 νM) ([2]; inhibitor at 100 νM): 0%
